Measurements: patent US4342751A (priority 1981, dated 1982)
Numbered stars: 1 amine (or outer) side, 2 acyl side, 3 side chain; on linkers, the order of the positions; unused ones are H or OH. Square brackets hold non-standard residues; d marks the D form. Peptide text beside a SMILES is read from it. X1 = CCC(N[*:1])C(C)C(=O)O[C@H](C(=O)[*:2])[C@@H](C)CC; X2 = C[C@H](N[*:1])C(=O)C(C)(C)C(=O)[*:2]; NMeY = CN[C@@H](Cc1ccc(O)cc1)C(=O)O; NMeI = CC[C@H](C)[C@H](NC)C(=O)O; NMeV = CN[C@H](C(=O)O)C(C)C

Columns and labels:
[1] = tested on: Plasmopora viticola
[2] = tested on: Grape leaves (C. V. Niagara); settings: in vivo

Compound: CCC1NC(=O)[C@H](C)NC(=O)C(C)(C)C(=O)[C@H](C)NC(=O)[C@H](Cc2ccc(OC)cc2)N(C)C(=O)[C@H](C(C)C)N(C)C(=O)CNC(=O)[C@H]([C@@H](C)CC)N(C)C(=O)CNC(=O)[C@H]([C@@H](C)CC)OC(=O)C1C (stereo partly drawn) [Majusculamide C, majusculamide C] (cyclo(A[X1]G[NMeI]G[NMeV][NMeY](Me)[X2]))
- In vivo effectiveness against grape downy mildew [1]: effective
- Control of fungus ([1]; in vivo): control
- Phytotoxicity rating, grape leaves [2]: 0
